Results reported in patent US20250108026A1, “DROXIDOPA COMPOSITIONS AND METHODS” (XENAMED CORP., priority 2016, published 2025).
≈ marks a conversion by molar mass, not a printed value.

Experiments:
Format in all cases: physicochemical
[1] = Droxidopa solubility at room temperature at different pH
[2] = Solid state stability of droxidopa with pH modifiers under accelerated conditions 70° C./75% RH
Experimental: Droxidopa is stable in acidic solution, but degrades in neutral or alkaline conditions. […] When citric acid was present with the drug in solid state, e.g. powder or uncoated granules, droxidopa became unstable under accelerated conditions 70° C./75% RH. When these droxidopa granules/pellets were coated with a protective layer, and blended with citric acid, the drug degradation was reduced. Furthermore, a pH modifier monosodium citrate was used instead of citric acid and blended with droxidopa granules. Droxidopa was stable for 7 days under accelerated conditions 70° C./75% RH. […] Thus, salt based pH modifiers can be used to improve the stability of the droxidopa.

[3] = Stability of saturated droxidopa solutions at room temperature (UPLC); settings: for Stability of saturated droxidopa in solution: room temperature over 24 days; for Total degradation, 7 day Exposure / Total degradation, 24 day Exposure: saturated solution
Experimental: Saturated solutions of droxidopa were prepared in 3 diluents at different pH and stored at room temperature for up to 24 days in sealed containers. All solutions were prepared with an excess of droxidopa by combining 10 mg droxidopa per ml of diluent. Exposed samples were filtered and degradation as a percent of initial droxidopa amount was determined by ultra-performance liquid chromatography (UPLC) on a Waters ACQUITY UPLC with a photodiode array (PDA) detector using a Waters ACQUITY HSS PFP 1.8 μm 2.1×100 mm column. Run conditions for the analyses were as follows: • Mobile phase A: 50 mM ammonium formate pH 3.0 • Mobile phase B: Acetonitrile • Detection wavelength: 279 nm • Flow: 0.5 ml/min • Column temperature: 30 C • Injection volume: 1 μl • Gradient (linear transitions) are shown in Table 12B: […]

[4] = Stability of droxidopa dissolved in diluents of different pH (0.5 mg/ml, room temperature, UPLC); settings: for Total degradation, 24-hour Exposure / Total degradation, 48-hour Exposure: room temperature, 0.5 mg/ml
Experimental: Droxidopa was dissolved in 5 diluents at different pH and stored at room temperature for 24 or 48 hours in sealed glass containers. All solutions were prepared at a nominal concentration of 0.5 mg/ml. Percent degradation was determined by ultra-performance liquid chromatography (UPLC) on a Waters ACQUITY UPLC with a photodiode array (PDA) detector using a Waters ACQUITY BEH C18 1.7 um 2.1×50 mm column. Run conditions for the analyses were as follows: • Mobile phase A: 50 mM sodium phosphate pH 3.0 • Mobile phase B: Acetonitrile • Detection wavelength: 279 nm • Flow: 0.5 ml/min • Column temperature: 30 C • Injection volume: 2 μl • Gradient (linear transitions) are shown in Table 12A: Identification of the known components droxidopa and dihydroxybenzaldehyde was confirmed through retention time and spectral match against pure materials of known identity. Degradation results were quantified as a percent area of degradation peaks versus total area of all degradation/droxidopa peaks. Results for pH 10.0 and pH 12.0 samples were estimated at >90% due to a significant number of peaks present near the retention time of droxidopa.

[5] = 16 mmol citric acid, room temperature
[6] = 16 mmol disodium citrate combined with 16 mmol citric acid to achieve pH 4.0, room temperature
[7] = pH 3, 50 mM NaH2PO4 adjusted to pH 3.0 with Phosphoric acid
[8] = pH 7, 50 mM NaH2PO4 adjusted to pH 7.0 with 1N Sodium hydroxide

N[C@H](C(=O)O)[C@H](O)c1ccc(O)c(O)c1 [droxidopa, (−)-threo-3-(3,4-Dihydroxyphenyl)-L-serine]
solubility ([1]; solution of pH 1.2 (composition not stated), pH 1.2, simulated gastric fluid): 15500 µg/mL (≈ 72.7 mM)
solubility ([1]; solution of pH 3.0 (composition not stated), pH 3, aqueous buffer): 2620 µg/mL (≈ 12.3 mM)
solubility ([1]; solution of pH 4.5 (composition not stated), pH 4.5, aqueous buffer): 2350 µg/mL (≈ 11 mM)
solubility ([1]; solution of pH 5.5 (composition not stated), pH 5.5, aqueous buffer): 2300 µg/mL (≈ 10.8 mM)
solubility ([1]; solution of pH 6.8 (composition not stated), pH 6.8, aqueous buffer): 2470 µg/mL (≈ 11.6 mM)
Solid state stability ([2]; citric acid present with the drug in solid state (powder or uncoated granules)): unstable
Solid state stability ([2]; droxidopa granules blended with monosodium citrate, 7 days): stable
Drug degradation in solid state ([2]; granules/pellets coated with a protective layer and blended with citric acid): reduced
Stability of saturated droxidopa in solution ([3]; citrate buffer (pH 4.0)): stable
Stability of saturated droxidopa in solution ([3]; citric acid solution (pH 2.5)): stable
Total degradation, 7 day Exposure [3, 5]: 0.0%
Total degradation, 24 day Exposure [3, 5]: 0.1%
Total degradation, 7 day Exposure [3, 6]: 0.0%
Total degradation, 24 day Exposure [3, 6]: 0.1%
Total degradation, 7 day Exposure ([3]; Deionized water, room temperature): 0.1%
Stability in solution ([4]; acidic solution): stable
Stability in solution ([4]; neutral or alkaline conditions): degrades
Total degradation, 24-hour Exposure ([4]; pH 1.2, 0.1N HCl): <0.05%
Total degradation, 48-hour Exposure ([4]; pH 1.2, 0.1N HCl): <0.05%
Total degradation, 24-hour Exposure [4, 7]: <0.05%
Total degradation, 48-hour Exposure [4, 7]: <0.05%
Total degradation, 24-hour Exposure [4, 8]: 0.39%
Total degradation, 48-hour Exposure [4, 8]: 1.23%
Total degradation, 24-hour Exposure ([4]; pH 10, 25 mM HCO2NH4 adjusted to pH 10.0 with NH4OH, estimated): >90%
Total degradation, 24-hour Exposure ([4]; pH 12, 0.01N NaOH, estimated): >90%
